Results from ChEMBL document CHEMBL3244251, “Mitomycin antibiotics. Synthesis of 7-methoxy-1-(N-pyrrolidino)mitosene and its methiodide” (J Med Chem, 1978).
Activity calls are given as the source filed them. No cut-off for these calls is given here.

Legend:
[1] = test system: Enterobacteria phage lambda; test: Induction of lambda phage production in streptomycin-dependent lysogenic Escherichia coli W1709 (lambda) assessed as ratio of plaques in treated culture to control at 0.5 ug/ml; assay type: functional
P388 [2] = test: In vivo antitumor activity against mouse P388 cells relative to control; assay type: functional, organism-based
[3] = test system: Enterobacteria phage lambda; test: Induction of lambda phage production in streptomycin-dependent lysogenic Escherichia coli W1709 (lambda) assessed as ratio of plaques in treated culture to control at 12.5 ug/ml; assay type: functional
Bacillus subtilis [4] = test: Antibacterial activity against Bacillus subtilis assessed as growth inhibition at 50 ug/ml in 100 mm disk at pH 8.0 by single-disk method; assay type: functional; conditions: read-out: IZ
Bacillus subtilis [5] = test: Antibacterial activity against Bacillus subtilis assessed as growth inhibition at 12.5 ug/ml in 100 mm disk at pH 8.0 by single-disk method; assay type: functional; conditions: read-out: IZ
[6] = test system: Enterobacteria phage lambda; test: Induction of lambda phage production in streptomycin-dependent lysogenic Escherichia coli W1709 (lambda) assessed as ratio of plaques in treated culture to control at 3.1 ug/ml; assay type: functional
[7] = test system: Enterobacteria phage lambda; test: Induction of lambda phage production in streptomycin-dependent lysogenic Escherichia coli W1709 (lambda) assessed as ratio of plaques in treated culture to control at 0.8 ug/ml; assay type: functional
[8] = test system: Enterobacteria phage lambda; test: Induction of lambda phage production in streptomycin-dependent lysogenic Escherichia coli W1709 (lambda) assessed as ratio of plaques in treated culture to control at 0.2 ug/ml; assay type: functional
Escherichia coli [9] = test: Toxicity in streptomycin-dependent lysogenic Escherichia coli W1709 (lambda) at 12.5 ug/ml; assay type: organism-based; conditions: in vivo
Bacillus subtilis [10] = test: Antibacterial activity against Bacillus subtilis assessed as growth inhibition at 3.1 ug/ml in 100 mm disk at pH 8.0 by single-disk method; assay type: functional; conditions: read-out: IZ
Bacillus subtilis [11] = test: Antibacterial activity against Bacillus subtilis assessed as growth inhibition at 0.8 ug/ml in 100 mm disk at pH 8.0 by single-disk method; assay type: functional; conditions: read-out: IZ
Bacillus subtilis [12] = test: Antibacterial activity against Bacillus subtilis assessed as growth inhibition at 0.2 ug/ml in 100 mm disk at pH 8.0 by single-disk method; assay type: functional; conditions: read-out: IZ
Escherichia coli [13] = test: Toxicity in streptomycin-dependent lysogenic Escherichia coli W1709 (lambda) at 3.1 ug/ml; assay type: organism-based; conditions: in vivo
Escherichia coli [14] = test: Toxicity in streptomycin-dependent lysogenic Escherichia coli W1709 (lambda) at 0.8 ug/ml; assay type: organism-based; conditions: in vivo
P388 [15] = test: In vivo antitumor activity against mouse P388 cells at 6.4 mg/kg relative to control; assay type: functional
Bacillus subtilis [16] = test: Antibacterial activity against Bacillus subtilis assessed as growth inhibition at 16.6 ug/ml in 100 mm disk at pH 8.0 by single-disk method; assay type: functional; conditions: read-out: IZ
Bacillus subtilis [17] = test: Antibacterial activity against Bacillus subtilis assessed as growth inhibition at 5.5 ug/ml in 100 mm disk at pH 8.0 by single-disk method; assay type: functional; conditions: read-out: IZ
[18] = test system: Enterobacteria phage lambda; test: Induction of lambda phage production in streptomycin-dependent lysogenic Escherichia coli W1709 (lambda) assessed as ratio of plaques in treated culture to control at 0.0125 ug/ml; assay type: functional
Escherichia coli [19] = test: Toxicity in streptomycin-dependent lysogenic Escherichia coli W1709 (lambda) at 0.5 ug/ml; assay type: organism-based; conditions: in vivo

SMILES | T/C [1] | Activity (P388 [2]) | T/C [3] | zone of inhibition at 50 µg/mL (Bacillus subtilis [4]) [mm] | zone of inhibition at 12.5 µg/mL (Bacillus subtilis [5]) [mm] | T/C [6] | T/C [7] | T/C [8] | Activity (Escherichia coli [9]) | zone of inhibition at 3.1 µg/mL (Bacillus subtilis [10]) [mm] | zone of inhibition at 0.8 µg/mL (Bacillus subtilis [11]) [mm] | zone of inhibition at 0.2 µg/mL (Bacillus subtilis [12]) [mm] | Activity (Escherichia coli [13]) | Activity (Escherichia coli [14]) | T/C (P388 [15]) [%] | zone of inhibition at 16.6 µg/mL (Bacillus subtilis [16]) [mm] | zone of inhibition at 5.5 µg/mL (Bacillus subtilis [17]) [mm] | T/C [18] | Activity (Escherichia coli [19])
COC1=C(C)C(=O)c2c(c(COC(N)=O)c3n2CCC3[N+]2(C)CCCC2)C1=O (configuration not stated) | 1.1 | inactive | 2.2 | 14.2 | 10 | 1.2 | 1.1 | 1.1 |  |  |  |  |  |  |  |  |  |  | 
COC1=C(C)C(=O)c2c(c(COC(N)=O)c3n2CCC3N2CCCC2)C1=O (configuration not stated) | 1.2 | inactive | 2.1 | 33 | 27.8 | 3.6 | 1.6 | 1.3 | Toxic | 22 | 15.3 | 11.3 |  |  |  |  |  |  | 
COC1=C(C)C(=O)c2c(c(COC(N)=O)c3n2CCC3OC(C)=O)C1=O (configuration not stated) |  |  | > 49 | 35 |  | > 74 | > 49 | 27.9 | Toxic |  |  |  | Toxic | Toxic | 162 | 35 | 31.2 |  | 
CO[C@@]12[C@H](COC(N)=O)C3=C(C(=O)C(C)=C(N)C3=O)N1C[C@@H]1N[C@@H]12 [MITOMYCIN] | 17.5 |  |  |  |  |  |  |  |  |  | 32 | 22.8 |  |  | 283 |  |  | 8.6 | Toxic
